The values that follow come from patent US20110105493A1, “HETEROCYCLYL SUBSTITUTED ARYLINDENOPYRIMIDINES AND THEIR USE AS HIGHLY SELECTIVE ADENOSINE A2a RECEPTOR ANTAGONISTS” (priority 2009, published 2011).

Assay [1] deals with T1, human adenosine A1 receptor (Homo sapiens, UniProt P30542).
T1 construct: expressed in transfected cells; host or cells: CHO-K1 cells with a cAMP inducible beta-galactosidase reporter gene
T1 sequence (P30542 1-326): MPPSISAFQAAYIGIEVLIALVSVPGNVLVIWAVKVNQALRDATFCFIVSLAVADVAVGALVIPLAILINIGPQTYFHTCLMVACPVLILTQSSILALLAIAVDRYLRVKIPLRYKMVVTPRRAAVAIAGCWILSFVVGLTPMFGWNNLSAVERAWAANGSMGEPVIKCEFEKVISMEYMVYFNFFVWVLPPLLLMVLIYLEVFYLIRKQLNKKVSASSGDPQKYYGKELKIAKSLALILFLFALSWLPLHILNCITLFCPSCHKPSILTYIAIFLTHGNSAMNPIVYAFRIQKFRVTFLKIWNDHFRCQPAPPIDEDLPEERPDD
As to the kind of experiment: Adenosine A1 Receptor Functional Assay (A1GAL2). Type of assay: cell-based. The conditions noted are these: CHO-K1 cells overexpressing human A1 receptor, cAMP inducible beta-galactosidase reporter, 4 nM r-PIA/1 uM Forskolin agonist challenge. As for the experimental part:
Adenosine A1 Receptor Functional Assay (A1GAL2)
To initiate the functional assay, cryopreserved CHO—K1 cells overexpressing the human adenosine A1 receptor and containing a cAMP inducible beta-galactosidase reporter gene were thawed, centrifuged, DMSO containing media removed, and then seeded with fresh culture media into clear 384-well tissue culture treated plates (BD #353961) at a concentration of 10K cells/well. Prior to assay, these plates were cultured for two days at 37° C., 5% CO2, 90% Rh. On the day of the functional assay, culture media was removed and replaced with 45 μL assay medium (Hams/F-12 Modified (Mediatech # 10-080CV) supplemented w/0.1% BSA). Test compounds were diluted and 11 point curves created at a 1000× concentration in 100% DMSO. Immediately after addition of assay media to the cell plates, 50 nL of the appropriate test compound antagonist or agonist control curves were added to cell plates using a Cartesian Hummingbird. Compound curves were allowed to incubate at room temperature on cell plates for approximately 15 minutes before addition of a 4 nM r-PIA (Sigma P4532)/1 uM Forskolin (Sigma F3917) agonist challenge (5 μL volume). A control curve of r-PIA in1 uM Forskolin, a DMSO/Media control, and a single dose of Forskolin were also included on each plate. After additions, cell plates were allowed to incubate at 37° C., 5% CO2, 90% Rh for 5.5-6 hours. After incubation, media was removed, and cell plates were washed 1×50 μL with DPBS w/o Ca & Mg (Mediatech 21-031-CV). Into dry wells, 20 μL of 1×Reporter Lysis Buffer (Promega E3971 (diluted in dH2O from 5× stock)) was added to each well and plates frozen at −20° C. overnight. For β-galactosidase enzyme colorimetric assay, plates were thawed out at room temperature and 20 μL 2×assay buffer (Promega) was added to each well. Color was allowed to develop at 37° C., 5% CO2, 90% Rh for 1-1.5 h or until reasonable signal appeared. The colorimetric reaction was stopped with the addition of 60 μL/well 1M sodium carbonate. Plates were counted at 405 nm on a SpectraMax Microplate Reader (Molecular Devices). Data was analyzed in Microsoft Excel and IC/EC50 curves were fit using a standardized macro.

Assay [2] deals with T2, human adenosine A2A receptor (Homo sapiens, UniProt P29274).
T2 construct: expressed in transfected cells; host or cells: CHO-K1 cells with a cAMP inducible beta-galactosidase reporter gene
Kind of assay: Adenosine A2A Receptor Functional Assay (A2A GAL2). Type of assay: cell-based. The conditions noted are these: for IC50: CHO-K1 cells overexpressing human A2A receptor, cAMP inducible beta-galactosidase reporter, 15 nM NECA agonist challenge, read-out: A2AGal2; for A1/A2A: ratio of A1Gal2 to A2AGal2 values. On the procedure:
Adenosine A2A Receptor Functional Assay (A2A GAL2)
To initiate the functional assay, cryopreserved CHO—K1 cells overexpressing the human adenosine A2A receptor and containing a cAMP inducible beta-galactosidase reporter gene were thawed, centrifuged, DMSO containing media removed, and then seeded with fresh culture media into clear 384-well tissue culture treated plates (BD #353961) at a concentration of 10K cells/well. Prior to assay, these plates were cultured for two days at 37° C., 5% CO2, 90% Rh. On the day of the functional assay, culture media was removed and replaced with 45 μL assay medium (Hams/F-12 Modified (Mediatech # 10-080CV) supplemented w/0.1% BSA). Test compounds were diluted and 11 point curves created at a 1000× concentration in 100% DMSO. Immediately after addition of assay media to the cell plates, 50 nL of the appropriate test compound antagonist or agonist control curves were added to cell plates using a Cartesian Hummingbird. Compound curves were allowed to incubate at room temperature on cell plates for approximately 15 minutes before addition of a 15 nM NECA (Sigma E2387) agonist challenge (5 μL volume). A control curve of NECA, a DMSO/Media control, and a single dose of Forskolin (Sigma F3917) were also included on each plate. After additions, cell plates were allowed to incubate at 37° C., 5% CO2, 90% Rh for 5.5-6 hours. After incubation, media were removed, and cell plates were washed 1×50 μL with DPBS w/o Ca & Mg (Mediatech 21-031-CV). Into dry wells, 20 μL of 1×Reporter Lysis Buffer (Promega E3971 (diluted in dH2O from 5× stock)) was added to each well and plates frozen at −20° C. overnight. For β-galactosidase enzyme colorimetric assay, plates were thawed out at room temperature and 20 μL 2× assay buffer (Promega) was added to each well. Color was allowed to develop at 37° C., 5% CO2, 90% Rh for 1-1.5 h or until reasonable signal appeared. The colorimetric reaction was stopped with the addition of 60 μL/well 1M sodium carbonate. Plates were counted at 405 nm on a SpectraMax Microplate Reader (Molecular Devices). Data was analyzed in Microsoft Excel and IC/EC50 curves were fit using a standardized macro.

T2 sequence (P29274 whole entry): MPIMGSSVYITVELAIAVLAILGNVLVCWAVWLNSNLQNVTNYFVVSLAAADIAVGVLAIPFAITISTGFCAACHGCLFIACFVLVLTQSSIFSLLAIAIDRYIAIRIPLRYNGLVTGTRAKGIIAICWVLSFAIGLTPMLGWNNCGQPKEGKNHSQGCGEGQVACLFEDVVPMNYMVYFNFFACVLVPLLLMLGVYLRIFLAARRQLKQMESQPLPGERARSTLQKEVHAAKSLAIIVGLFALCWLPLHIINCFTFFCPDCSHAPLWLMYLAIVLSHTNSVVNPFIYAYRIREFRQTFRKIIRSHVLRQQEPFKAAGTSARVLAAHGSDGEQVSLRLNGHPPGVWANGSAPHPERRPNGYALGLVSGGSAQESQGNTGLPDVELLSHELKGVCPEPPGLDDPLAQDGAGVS

`N#Cc1ccc(N2CCN(c3cccc4c3-c3nc(N)nc(-c5ccccc5)c3C4=O)CC2)nc1` [Example 8, 6-[4-(2-Amino-5-oxo-4-phenyl-5H-indeno[1,2-d]pyrimidin-9-yl)-piperazin-1-yl]-nicotinonitrile]: the values for the IC50 in assay [1] and in assay [2] were 2100 nM and 2.7 nM, respectively. Further, the A1/A2A in assay [2] is listed as 777.778.

Take `Nc1nc(-c2ccccc2)c2c(n1)-c1c(cccc1N1CCN(c3ncccc3F)CC1)C2=O` [Example 10, 2-Amino-9-[4-(3-fluoro-pyridin-2-yl)-piperazin-1-yl]-4-phenyl-indeno[1,2-d]pyrimidin-5-one]: the IC50 in assay [1] is 1900 nM. In addition, in assay [2], the IC50 was 2.6 nM and the A1/A2A was found to be 730.769.

`Nc1nc(-c2ccccc2)c2c(n1)-c1c(cccc1N1CCN(c3ccccc3F)CC1)C2=O` [Example 4, 2-Amino-9-[4-(2-fluoro-phenyl)-piperazin-1-yl]-4-phenyl-indeno[1,2-d]pyrimidin-5-one] came in with an IC50 in assay [1] of 1900 nM. Also, in assay [2], the IC50 came out at 1.2 nM and the A1/A2A is 1583.33.

With `COCCOc1ccc(N2CCN(c3cccc4c3-c3nc(N)nc(-c5ccccc5)c3C4=O)CC2)c(F)c1` [Example 5, 2-Amino-9-{4-[2-fluoro-4-(2-methoxy-ethoxy)-phenyl]-piperazin-1-yl}-4-phenyl-indeno[1,2-d]pyrimidin-5-one], the IC50 in assay [1] is 750 nM; in assay [2], 0.49 nM. Also, the A1/A2A in assay [2] worked out at 1530.61.

Turning to `Nc1nc(-c2ccccc2)c2c(n1)-c1c(cccc1N1CCN(c3ccccn3)CC1)C2=O` [Example 17, 2-Amino-4-phenyl-9-(4-pyridin-2-yl-piperazin-1-yl)-indeno[1,2-d]pyrimidin-5-one], in assay [1], the IC50 was 200 nM. In assay [2], the IC50 worked out at 1.4 nM and the A1/A2A was 142.857.

Consider `CC(=O)C1(c2ccccc2)CCN(c2cccc3c2-c2nc(N)nc(-c4ccccc4)c2C3=O)CC1` [Example 25, 9-(4-Acetyl-4-phenyl-piperidin-1-yl)-2-amino-4-phenyl-indeno[1,2-d]pyrimidin-5-one], for which the IC50 in assay [1] was 220 nM; in assay [2], 4.2 nM. The A1/A2A in assay [2] is recorded as 52.381.

In assay [1], `C=CCN1CCN(c2cccc3c2-c2nc(N)nc(-c4ccccc4)c2C3=O)CC1` [Example 23, 9-(4-Allyl-piperazin-1-yl)-2-amino-4-phenyl-indeno[1,2-d]pyrimidin-5-one] yielded an IC50 of 748 nM. For the same molecule, in assay [2], the IC50 is 12.5 nM and the A1/A2A is on record as 60.0758.

Turning to `CC(=O)c1ccc(N2CCN(c3cccc4c3-c3nc(N)nc(-c5ccccc5)c3C4=O)CC2)cc1` [Example 1, 9-[4-(4-Acetyl-phenyl)-piperazin-1-yl]-2-amino-4-phenyl-indeno[1,2-d]pyrimidin-5-one], the values for the IC50 in assay [1] and in assay [2] were 4050 nM and 0.2 nM, respectively. Moreover, the A1/A2A in assay [2] worked out at 20250.
